{
  "source": "paper PMC5701182",
  "about": "“The Aβ oligomer eliminating D-enantiomeric peptide RD2 improves cognition without changing plaque pathology” (Scientific Reports, 2017)",
  "key": {"APP/PS1 mice [1]": {"system": "APP/PS1 mice", "experiment": "Body weight and general health during intraperitoneal minipump treatment", "type": "in vivo, mouse", "conditions": "female APP/PS1 mice, 5.3 mg/kg/day RD2 i.p. by Alzet minipump", "protocol": "For this study, 21 APP/PS1 double transgenic mice (APPSwedish/PS1ΔE9)[36] were used. The very well characterized APP/PS1 mouse model develops cognition deficits and abundant Aβ deposits already at early age. The original mice were purchased from JAX (The Jackson Laboratory, USA) and maintained in our own colony at the University of Alabama in Birmingham. Before treatment, the mice were housed in a controlled environment (humidity 50–60%, temperature 22 °C, light from 06:00 a.m. to 6:00 p.m.) with 4 animals per cage in our facility with food and water available ad libitum. After the implantation of the Alzet minipumps the mice were housed individually.\nIn this study, we treated seven months old female APP/PS1 mice intraperitoneally by use of Alzet osmotic minipumps (Alzet osmotic mini pumps, model #1004, Alzet, USA). Mice were either treated with 5.3 mg/kg/day RD2 (n = 11) or placebo (0.9% sodium chloride solution) (n = 10) as control group. The Alzet minipumps were soaked in sterile 0.9% sodium chloride solution for 24 h before implantation. The next day, the pumps were filled with the appropriate solution and implanted intraperitoneally. In short, mice were anesthetised with isoflurane, the skin and the muscle layer below were cut in the midline and the pump was inserted in the abdominal cavity. Following placement of the pump, the wound was sutured. […]"}, "APP/PS1 mice [2]": {"system": "APP/PS1 mice", "experiment": "Open field test", "type": "in vivo, mouse", "conditions": "APP/PS1 mice after three weeks of 5.3 mg/kg/day RD2 i.p.", "protocol": "(§1) In this study, we treated seven months old female APP/PS1 mice intraperitoneally by use of Alzet osmotic minipumps (Alzet osmotic mini pumps, model #1004, Alzet, USA). Mice were either treated with 5.3 mg/kg/day RD2 (n = 11) or placebo (0.9% sodium chloride solution) (n = 10) as control group. The Alzet minipumps were soaked in sterile 0.9% sodium chloride solution for 24 h before implantation. The next day, the pumps were filled with the appropriate solution and implanted intraperitoneally. In short, mice were anesthetised with isoflurane, the skin and the muscle layer below were cut in the midline and the pump was inserted in the abdominal cavity. Following placement of the pump, the wound was sutured. Three weeks after the implantations, the mice were tested in different behavioural set ups. 28 days after the implantations, the mice were sacrificed for histopathological analysis. All mice of both groups were included in the experiments described below.\nThe open field test was performed to evaluate the activity and anxiety behaviour of the mice. The arena (42 cm × 42 cm surrounded with clear Plexiglass sides (20 cm high)) was subdivided into two areas: border and centre. […] Time spent in both areas was analysed. After each testing day and in between the mice, the apparatus was wiped out with chlorhexidine and 70% ethanol and allowed to air-dry."}, "[3]": {"biological_target": "T1, Aβ(1-42) fibril formation (Homo sapiens, UniProt P05067)", "T1 construct": "Synthetic and recombinant Aβ(1-42) with >95% purity was purchased as lyophilized powder; purchased Bachem (Germany) (synthetic) / Isoloid (Germany) (recombinant)", "T1 sequence (P05067 672-713 limits assumed)": "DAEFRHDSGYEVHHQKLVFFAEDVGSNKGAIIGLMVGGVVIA", "experiment": "Thioflavin T (ThT) fibril formation assay", "type": "biochemical", "conditions": "20 µM Aβ(1-42), 5 µM ThT, RD2 80-1.25 µM, 21 h, 37 °C; logistic fit; three replicates; read-out: IC50 of inhibition of Aβ(1-42) fibril formation", "protocol": "The Thioflavin T (ThT) assay is a commonly used assay to visualize and quantify the fibrilisation of Aβ, since this dye binds to amyloidogenic cross-β-sheet structures. While Aβ aggregates into fibrils, the ThT fluorescence intensities increase until a saturation level is accomplished. Within this test, we analysed the inhibitory function of RD2 on the Aβ(1-42) fibril formation. 20 µM Aβ(1-42) was incubated with 5 µM ThT and different concentrations of RD2 (serial dilution from 80 µM till 1.25 µM) for IC50 calculation. ThT fluorescence was monitored over 21 h every 5 min at λex = 440 nm and λem = 490 nm in a fluorescence plate reader (Polarstar Optima, Germany) at 37 °C. Correction was done using all supplements without Aβ. For data evaluation, the fibril masses were determined by subtracting the baseline fluorescence intensities from the top and normalised to the Aβ control to calculate the inhibition in percent. The IC50 resulted from the compound concentration at the inflection point obtained by a logistic fit of the data (OriginPro 8.5 G, OriginLab, USA)."}, "Aβ(1-42) oligomers": {"biological_target": "T2, Aβ(1-42) oligomers (Homo sapiens, UniProt P05067)", "T2 construct": "Synthetic and recombinant Aβ(1-42) with >95% purity was purchased as lyophilized powder; purchased Bachem (Germany) (synthetic) / Isoloid (Germany) (recombinant)", "T2 sequence (P05067 672-713 limits assumed)": "as above", "experiment": "QIAD assay (quantitative determination of interference with Aβ aggregate size distribution)", "type": "biochemical", "protocol": "For the evaluation of Aβ oligomer elimination of RD2, a QIAD assay (quantitative determination of interference with Aβ aggregate size distribution) was performed according to Brener et al.[23]. Briefly, 80 µM Aβ(1-42) was pre-incubated for 4.5 h to enrich Aβ oligomers. Then either RD2 or D3 were added to the pre-incubated solution with the resulting concentration of 20 µM RD2 or D3 and co-incubated for further 40 min. The samples were loaded on top of a density gradient containing 5 to 50% (w/v) iodixanol (OptiPrep, Axis-Shield, Norway) and centrifuged for 3 h at 4 °C and 259.000 × g (Optima TL-100, Beckman Coulter, USA). After centrifugation, 14 fractions à 140 μl were harvested by upward displacement. Fraction 1 from the top of the gradient was the least dense fraction while fraction 14 from just above the bottom was the densest fraction. The pellet of each tube was mixed with 60 µl of a 6 M guanidine hydrochloride solution and boiled for 10 min. The resulting solution represents fraction 15. All fractions were analysed with respect to their Aβ(1-42) content by analytical RP-HPLC (reversed phase-high performance liquid chromatography) and UV absorbance detection at 214 nm. The data for the D3 values and the Aβ(1-42) controls without compounds were already previously used in Brener et al.[23]. Analyses were done at least in quadruplicates (D3 and RD2 n = 4, Aβ(1-42) n = 11). […]"}, "APP/PS1 mice [4]": {"system": "APP/PS1 mice", "experiment": "Morris water maze", "type": "in vivo, mouse", "conditions": "5.3 mg/kg/day RD2 i.p., placebo 19.0 ± 1 cm/s", "protocol": "as §1\nThe mice were tested daily for one week in a water maze. Our version of the Morris water maze consists of a blue circular tank (120 cm diameter) filled with clear water (22 °C ± 1 °C). […] Mice were recorded with a camera driven tracker system (Ethovision XT10, Noldus, The Netherlands). It was analysed the time the mice needed to escape to the hidden platform (escape latency) and the time they spent in the target quadrant (probe trial)."}, "SH-SY5Y cells": {"system": "SH-SY5Y cells", "experiment": "MTT cell viability assay, SH-SY5Y cells", "type": "cell-based, human", "conditions": "5 µM RD2 without Aβ, one-way ANOVA n.s., p = 0.4", "protocol": "(§2) MTT (3-(4,5-Dimethylthiazol-2-yl)-2,5-diphenyl-tetrazolium bromide) based cell viability assays were accomplished to examine the cytotoxicity of Aβ(1-42) in the presence of RD2 on two different cell lines, PC-12 (rat pheochromocytoma cell line), and SH-SY5Y (human neuroblastoma cell line) cells.\n(§3) PC-12 cells (DSMZ, Germany) were cultured in DMEM medium supplemented with 10% fetal calf serum, 1% antibiotics (Penicillin/Streptomycin) (all Sigma-Aldrich, USA), and 5% horse serum (PAA Laboratories GmbH, Germany) on collagen A-coated (Biochrom GmbH, Germany) tissue culture flasks (SPL Life Sciences Co., Korea). SH-SY5Y cells (DSMZ, Germany) were cultured in DMEM medium supplemented with 20% fetal calf serum and 1% antibiotics (Penicillin/Streptomycin) (all Sigma-Aldrich, USA) on tissue culture flasks (SPL Life Sciences Co., Korea). Cells were allowed to grow in a humidified incubator with 5% CO2 at 37 °C and a maximum of 12 (PC-12 cells) or 21 (SH-SY5Y cells) passages. Medium was changed every two days and cells were passaged every three to five days, according to their confluence.\n(§4) MTT test was performed according to the manufacturer’s protocol (CellProliferation Kit I; Roche, Switzerland). […] The arithmetic mean of all measurements per approach was calculated. Results are represented as the percentage of MTT reduction, assuming that the absorbance of control cells was 100%."}, "[5]": {"conditions": "previous pharmacokinetic studies of D3 and RD2; cited from earlier work", "excerpt": "Nowadays, the inhibition of the formation of Aβ oligomers and the elimination of already present Aβ oligomers is thought to be one of the most promising strategies to modify disease progression according to the modified amyloid cascade hypothesis. Currently registered drugs can only ameliorate symptoms and cannot slow down disease progression. Previously, we have reported about a D-enantiomeric peptide, named “D3”, which was identified by mirror image phage display and solely consists of D-enantiomeric amino acid residues[21],[22]. D3 inhibits the formation of regular Aβ fibrils, eliminates di ..."}, "PC-12 cells": {"system": "PC-12 cells", "experiment": "MTT cell viability assay, PC-12 cells", "type": "cell-based, rat", "conditions": "5 µM RD2 without Aβ, one-way ANOVA n.s., p = 0.4", "protocol": "as §2, §3, §4"}, "APP/PS1 mice [6]": {"system": "APP/PS1 mice", "experiment": "Zero maze", "type": "in vivo, mouse", "conditions": "APP/PS1 mice after three weeks of 5.3 mg/kg/day RD2 i.p., mean ± SEM, placebo 5.0 ± 0.6", "protocol": "as §1\nSimilar to the open field test, the zero maze was used to assess the anxiety behaviour of the mice. The maze consisted of a circular arena (65 cm diameter) that is raised 40 cm above the table. The maze was separated into four equal parts, with two parts with 15 cm high walls of opaque material and two only 0.5 cm high walls. […] Analysed was the time mice spent in the open and closed arms. […]"}},
  "note": "pIC50: −log10 of the molar value. Non-standard residues stand in square brackets, D forms with d. Residues, ends and D or L forms follow the SMILES beside them.",
  "data": [
    {"smiles": "CC(C)C[C@@H](NC(=O)[C@H](NC(=O)[C@H]1CCCN1)[C@H](C)O)C(=O)N[C@H](Cc1c[nH]cn1)C(=O)N[C@@H](C(=O)N[C@H](Cc1c[nH]cn1)C(=O)N[C@H](CC(N)=O)C(=O)N[C@H](CCCNC(=N)N)C(=O)N[C@H](CCCNC(=N)N)C(=O)N[C@H](CCCNC(=N)N)C(=O)N[C@H](CCCNC(=N)N)C(=O)N[C@H](CCCNC(=N)N)C(N)=O)[C@H](C)O", "note": "[RD2] (H-[dP][dT][dL][dH][dT][dH][dN][dR][dR][dR][dR][dR]-NH2)", "values": [
      {"measurement": "physiological parameters, general health and discomfort", "setting": "APP/PS1 mice [1]; 28 days", "value": "neither changed any obvious physiological parameters"},
      {"measurement": "body weight", "setting": "APP/PS1 mice [1]; n = 11, placebo 25.7 ± 0.9 g, mean ± SEM, SEM", "value": "26.8 ± 0.8", "unit": "g"},
      {"measurement": "speed in the open field", "setting": "APP/PS1 mice [2]; mean ± SEM, placebo 8.9 ± 0.9 cm/s, SEM", "value": "8.8 ± 0.7", "unit": "cm/s"},
      {"measurement": "activity or anxiety levels versus placebo", "setting": "APP/PS1 mice [2]; open field and zero maze tests", "value": "no significant differences in activity or anxiety levels"},
      {"measurement": "pIC50", "setting": "[3]", "value": 5.11},
      {"measurement": "reduction of the amount of Aβ oligomers in fractions 4 to 6", "setting": "Aβ(1-42) oligomers; 20 µM RD2 added to 80 µM Aβ(1-42) pre-incubated 4.5 h, co-incubated 40 min, density gradient centrifugation, RP-HPLC UV 214 nm, n = 4", "value": 71, "unit": "%"},
      {"measurement": "pIC50", "setting": "Aβ(1-42) oligomers; QIAD with pooled fractions 4 to 6, 1-40 µM RD2 on 80 µM Aβ(1-42), logistic fit, n = 3, read-out: IC50 of Aβ(1-42) oligomer elimination", "value": 5.08},
      {"measurement": "swimming speed in the Morris water maze", "setting": "APP/PS1 mice [4]", "value": "18.8 ± 1", "unit": "cm/s"},
      {"measurement": "cell viability with RD2 alone compared to buffer control", "setting": "SH-SY5Y cells", "value": "did not result in any change of cell viability"},
      {"measurement": "bioavailability of RD2 compared to D3", "setting": "[5]", "value": "higher bioavailability"},
      {"measurement": "cell viability with RD2 alone compared to buffer control", "setting": "PC-12 cells", "value": "did not result in any change of cell viability"},
      {"measurement": "average speed of movement in the zero maze", "setting": "APP/PS1 mice [6]", "value": "4.8 ± 0.4", "unit": "cm/s"}
    ]}
  ]
}
